Experimental data from patent US9340600B2 (Indiana University Research and Technology Corporation, priority 2012, dated 2016).
*1 amine or outer side, *2 acyl side, *3 side chain or, on linkers, in order; H or OH if unused. Where a SMILES comes first, the peptide text is derived from it. Where no end group is shown, it is not given here. Side-chain parts run from the residue outwards. [ ]: non-standard residue; d: D form. The star is where a group is joined. γGlu = O=C(O)[C@H](CCC(=O)[*:2])N[*:1]; Palmitoyl = CCCCCCCCCCCCCCCC(=O)*; Met(O) = CS(=O)CC[C@H](N)C(=O)O; Aib = CC(C)(N)C(=O)O

How the values were obtained:
Type in all cases: cell-based
[1] = biological target: T1, glucagon receptor (Homo sapiens, UniProt P47871); test: cAMP induction, firefly luciferase-based reporter assay in HEK293 cells co-transfected with glucagon receptor; settings: for EC50: EC50 at Glucagon Receptor
T1 construct: expressed in transfected cells; host or cells: HEK293
From the text: (§1) This example describes an exemplary method of testing the biological activity of the peptides of the present disclosures, which method involves assaying cAMP synthesis.

[2] = biological target: T2, GLP-1 receptor (Homo sapiens, UniProt P43220); test: cAMP induction, firefly luciferase-based reporter assay in HEK293 cells co-transfected with GLP-1 receptor; settings: EC50 at GLP-1 Receptor
T2 construct: expressed in transfected cells; host or cells: HEK293
From the text: as §1

[3] = biological target: T3, GIP receptor (Homo sapiens, UniProt P48546); test: cAMP induction, firefly luciferase-based reporter assay in HEK293 cells co-transfected with GIP receptor; settings: EC50 at GIP Receptor
T3 construct: expressed in transfected cells; host or cells: HEK293
T3 sequence (P48546 22-466): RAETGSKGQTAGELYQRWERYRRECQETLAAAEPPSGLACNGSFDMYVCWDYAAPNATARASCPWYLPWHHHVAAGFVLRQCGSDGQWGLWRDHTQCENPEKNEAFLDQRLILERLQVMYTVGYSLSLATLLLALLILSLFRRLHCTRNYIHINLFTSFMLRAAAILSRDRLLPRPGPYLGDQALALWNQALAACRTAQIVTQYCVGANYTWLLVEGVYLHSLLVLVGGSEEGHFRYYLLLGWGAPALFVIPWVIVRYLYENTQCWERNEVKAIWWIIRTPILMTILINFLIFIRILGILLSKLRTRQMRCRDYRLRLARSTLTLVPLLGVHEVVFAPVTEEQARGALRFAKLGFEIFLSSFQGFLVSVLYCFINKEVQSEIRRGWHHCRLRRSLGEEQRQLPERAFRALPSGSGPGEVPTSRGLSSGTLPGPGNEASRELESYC
From the text: as §1

[4] = Table 3, analogs of SEQ ID NO: 18 varying at position 3
[5] = Table 2, analogs of SEQ ID NO: 18 varying at positions 16-21

T1 sequence (P47871 26-477): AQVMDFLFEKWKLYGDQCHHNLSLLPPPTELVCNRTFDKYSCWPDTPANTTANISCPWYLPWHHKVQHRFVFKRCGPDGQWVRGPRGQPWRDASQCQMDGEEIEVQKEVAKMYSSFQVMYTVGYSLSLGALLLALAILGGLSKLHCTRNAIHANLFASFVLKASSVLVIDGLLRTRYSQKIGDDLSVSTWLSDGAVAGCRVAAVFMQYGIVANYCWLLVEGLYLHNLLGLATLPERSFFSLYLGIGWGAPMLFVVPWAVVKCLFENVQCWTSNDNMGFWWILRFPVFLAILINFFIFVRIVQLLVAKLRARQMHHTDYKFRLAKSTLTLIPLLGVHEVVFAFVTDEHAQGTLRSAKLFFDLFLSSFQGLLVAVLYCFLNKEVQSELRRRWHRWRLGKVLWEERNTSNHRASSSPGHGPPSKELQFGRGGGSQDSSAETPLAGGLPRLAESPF
T2 sequence (P43220 24-463): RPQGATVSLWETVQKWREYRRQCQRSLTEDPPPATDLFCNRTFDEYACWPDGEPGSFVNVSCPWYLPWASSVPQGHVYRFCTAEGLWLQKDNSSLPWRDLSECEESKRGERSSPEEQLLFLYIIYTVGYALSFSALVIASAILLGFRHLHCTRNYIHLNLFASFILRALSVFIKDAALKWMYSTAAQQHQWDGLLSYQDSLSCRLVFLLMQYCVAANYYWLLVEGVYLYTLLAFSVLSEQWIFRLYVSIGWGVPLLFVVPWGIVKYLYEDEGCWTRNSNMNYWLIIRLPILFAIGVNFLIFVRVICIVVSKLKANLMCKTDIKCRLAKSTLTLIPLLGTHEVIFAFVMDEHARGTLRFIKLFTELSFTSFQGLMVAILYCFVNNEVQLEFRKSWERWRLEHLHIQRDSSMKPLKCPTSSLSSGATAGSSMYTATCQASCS

CCCCCCCCCCCCCCCC(=O)N[C@@H](CCC(=O)NCCCC[C@H](NC(=O)[C@H](CC(=O)O)NC(=O)[C@H](CO)NC(=O)[C@@H](NC(=O)[C@H](Cc1ccccc1)NC(=O)[C@@H](NC(=O)CNC(=O)[C@H](CC(C)C)NC(=O)C(C)(C)NC(=O)[C@@H](N)Cc1c[nH]cn1)[C@@H](C)O)[C@@H](C)O)C(=O)N[C@@H](CO)C(=O)N[C@@H](CCCCN)C(=O)N[C@@H](Cc1ccc(O)cc1)C(=O)N[C@@H](CC(C)C)C(=O)N[C@@H](CCC(=O)O)C(=O)N[C@@H](CCC(=O)O)C(=O)N[C@@H](CCCNC(=N)N)C(=O)N[C@@H](C)C(=O)N[C@@H](C)C(=O)N[C@@H](CCC(N)=O)C(=O)N[C@@H](CCC(=O)O)C(=O)N[C@@H](Cc1ccccc1)C(=O)N[C@H](C(=O)N[C@@H](CCC(N)=O)C(=O)N[C@@H](Cc1c[nH]c2ccccc12)C(=O)N[C@@H](CC(C)C)C(=O)N[C@@H](CC(C)C)C(=O)N[C@@H](CCC(=O)O)C(=O)NCC(=O)NCC(=O)N1CCC[C@H]1C(=O)N[C@@H](CO)C(=O)N[C@@H](CO)C(=O)NCC(=O)N[C@@H](C)C(=O)N1CCC[C@H]1C(=O)N1CCC[C@H]1C(=O)N1CCC[C@H]1C(=O)N[C@@H](CO)C(N)=O)C(C)C)C(=O)O [compound 32] (H-H[Aib]LGTFTSDK([γGlu-Palmitoyl])SKYLEERAAQEFVQWLLEGGPSSGAPPPS-NH2)
EC50 at Glucagon Receptor [1, 4]: Not active | EC50 [2, 4]: 388 pM | EC50 [3, 4]: 730 pM

CCCCCCCCCCCCCCCC(=O)N[C@@H](CCC(=O)NCCCC[C@H](NC(=O)[C@H](CC(=O)O)NC(=O)[C@H](CO)NC(=O)[C@@H](NC(=O)[C@H](Cc1ccccc1)NC(=O)[C@@H](NC(=O)CNC(=O)[C@H](C)NC(=O)C(C)(C)NC(=O)[C@@H](N)Cc1c[nH]cn1)[C@@H](C)O)[C@@H](C)O)C(=O)N[C@@H](CO)C(=O)N[C@@H](CCCCN)C(=O)N[C@@H](Cc1ccc(O)cc1)C(=O)N[C@@H](CC(C)C)C(=O)N[C@@H](CCC(=O)O)C(=O)N[C@@H](CCC(=O)O)C(=O)N[C@@H](CCCNC(=N)N)C(=O)N[C@@H](C)C(=O)N[C@@H](C)C(=O)N[C@@H](CCC(N)=O)C(=O)N[C@@H](CCC(=O)O)C(=O)N[C@@H](Cc1ccccc1)C(=O)N[C@H](C(=O)N[C@@H](CCC(N)=O)C(=O)N[C@@H](Cc1c[nH]c2ccccc12)C(=O)N[C@@H](CC(C)C)C(=O)N[C@@H](CC(C)C)C(=O)N[C@@H](CCC(=O)O)C(=O)NCC(=O)NCC(=O)N1CCC[C@H]1C(=O)N[C@@H](CO)C(=O)N[C@@H](CO)C(=O)NCC(=O)N[C@@H](C)C(=O)N1CCC[C@H]1C(=O)N1CCC[C@H]1C(=O)N1CCC[C@H]1C(=O)N[C@@H](CO)C(N)=O)C(C)C)C(=O)O [compound 35] (H-H[Aib]AGTFTSDK([γGlu-Palmitoyl])SKYLEERAAQEFVQWLLEGGPSSGAPPPS-NH2; N-terminus assumed)
EC50 [1, 4]: 73 pM | EC50 [2, 4]: 2 pM | EC50 [3, 4]: 6 pM

CCCCCCCCCCCCCCCC(=O)N[C@@H](CCC(=O)NCCCC[C@H](NC(=O)[C@H](CC(=O)O)NC(=O)[C@H](CO)NC(=O)[C@@H](NC(=O)[C@H](Cc1ccccc1)NC(=O)[C@@H](NC(=O)CNC(=O)[C@H](CCC(N)=O)NC(=O)C(C)(C)NC(=O)[C@@H](N)Cc1c[nH]cn1)[C@@H](C)O)[C@@H](C)O)C(=O)N[C@@H](CO)C(=O)N[C@@H](CCCCN)C(=O)N[C@@H](Cc1ccc(O)cc1)C(=O)N[C@@H](CC(C)C)C(=O)N[C@@H](CC(=O)O)C(=O)N[C@@H](CCC(=O)O)C(=O)N[C@@H](CCCNC(=N)N)C(=O)N[C@@H](C)C(=O)NC(C)(C)C(=O)N[C@@H](C)C(=O)N[C@@H](CCC(=O)O)C(=O)N[C@@H](Cc1ccccc1)C(=O)N[C@H](C(=O)N[C@@H](CCC(N)=O)C(=O)N[C@@H](Cc1c[nH]c2ccccc12)C(=O)N[C@@H](CC(C)C)C(=O)N[C@@H](CC(C)C)C(=O)N[C@@H](CC(=O)O)C(=O)NCC(=O)NCC(=O)N1CCC[C@H]1C(=O)N[C@@H](CO)C(=O)N[C@@H](CO)C(=O)NCC(=O)N[C@@H](C)C(=O)N1CCC[C@H]1C(=O)N1CCC[C@H]1C(=O)N1CCC[C@H]1C(=O)N[C@@H](CO)C(N)=O)C(C)C)C(=O)O [compound 23] (H-H[Aib]QGTFTSDK([γGlu-Palmitoyl])SKYLDERA[Aib]AEFVQWLLDGGPSSGAPPPS-NH2)
EC50 [1, 5]: 261 pM | EC50 [2, 5]: 7 pM | EC50 [3, 5]: 13 pM

CCCCCCCCCCCCCCCC(=O)N[C@@H](CCC(=O)NCCCC[C@H](NC(=O)[C@H](CC(=O)O)NC(=O)[C@H](CO)NC(=O)[C@@H](NC(=O)[C@H](Cc1ccccc1)NC(=O)[C@@H](NC(=O)CNC(=O)[C@H](CCC(N)=O)NC(=O)C(C)(C)NC(=O)[C@@H](N)Cc1c[nH]cn1)[C@@H](C)O)[C@@H](C)O)C(=O)N[C@@H](CO)C(=O)N[C@@H](CCCCN)C(=O)N[C@@H](Cc1ccc(O)cc1)C(=O)N[C@@H](CC(C)C)C(=O)N[C@@H](CC(=O)O)C(=O)N[C@@H](CCC(=O)O)C(=O)N[C@@H](CCC(N)=O)C(=O)N[C@@H](C)C(=O)N[C@@H](C)C(=O)NC(C)(C)C(=O)N[C@@H](CCC(=O)O)C(=O)N[C@@H](Cc1ccccc1)C(=O)N[C@H](C(=O)N[C@@H](CCC(N)=O)C(=O)N[C@@H](Cc1c[nH]c2ccccc12)C(=O)N[C@@H](CC(C)C)C(=O)N[C@@H](CC(C)C)C(=O)N[C@@H](CC(=O)O)C(=O)NCC(=O)NCC(=O)N1CCC[C@H]1C(=O)N[C@@H](CO)C(=O)N[C@@H](CO)C(=O)NCC(=O)N[C@@H](C)C(=O)N1CCC[C@H]1C(=O)N1CCC[C@H]1C(=O)N1CCC[C@H]1C(=O)N[C@@H](CO)C(N)=O)C(C)C)C(=O)O [compound 26] (H-H[Aib]QGTFTSDK([γGlu-Palmitoyl])SKYLDEQAA[Aib]EFVQWLLDGGPSSGAPPPS-NH2)
EC50 [1, 5]: 4 pM | EC50 [2, 5]: 1 pM | EC50 [3, 5]: 1 pM

CCCCCCCCCCCCCCCC(=O)N[C@@H](CCC(=O)NCCCC[C@H](NC(=O)[C@H](CC(=O)O)NC(=O)[C@H](CO)NC(=O)[C@@H](NC(=O)[C@H](Cc1ccccc1)NC(=O)[C@@H](NC(=O)CNC(=O)[C@H](CC[S+](C)[O-])NC(=O)C(C)(C)NC(=O)[C@@H](N)Cc1c[nH]cn1)[C@@H](C)O)[C@@H](C)O)C(=O)N[C@@H](CO)C(=O)N[C@@H](CCCCN)C(=O)N[C@@H](Cc1ccc(O)cc1)C(=O)N[C@@H](CC(C)C)C(=O)N[C@@H](CCC(=O)O)C(=O)N[C@@H](CCC(=O)O)C(=O)N[C@@H](CCCNC(=N)N)C(=O)N[C@@H](C)C(=O)N[C@@H](C)C(=O)N[C@@H](CCC(N)=O)C(=O)N[C@@H](CCC(=O)O)C(=O)N[C@@H](Cc1ccccc1)C(=O)N[C@H](C(=O)N[C@@H](CCC(N)=O)C(=O)N[C@@H](Cc1c[nH]c2ccccc12)C(=O)N[C@@H](CC(C)C)C(=O)N[C@@H](CC(C)C)C(=O)N[C@@H](CCC(=O)O)C(=O)NCC(=O)NCC(=O)N1CCC[C@H]1C(=O)N[C@@H](CO)C(=O)N[C@@H](CO)C(=O)NCC(=O)N[C@@H](C)C(=O)N1CCC[C@H]1C(=O)N1CCC[C@H]1C(=O)N1CCC[C@H]1C(=O)N[C@@H](CO)C(N)=O)C(C)C)C(=O)O (stereo partly drawn) [compound 42] (H-H[Aib][Met(O)]GTFTSDK([γGlu-Palmitoyl])SKYLEERAAQEFVQWLLEGGPSSGAPPPS-NH2)
EC50 [1, 4]: 42 pM | EC50 [2, 4]: 1 pM | EC50 [3, 4]: 6 pM

CCCCCCCCCCCCCCCC(=O)N[C@@H](CCC(=O)NCCCC[C@H](NC(=O)[C@H](CC(=O)O)NC(=O)[C@H](CO)NC(=O)[C@@H](NC(=O)[C@H](Cc1ccccc1)NC(=O)[C@@H](NC(=O)CNC(=O)[C@H](CCC(=O)O)NC(=O)C(C)(C)NC(=O)[C@@H](N)Cc1c[nH]cn1)[C@@H](C)O)[C@@H](C)O)C(=O)N[C@@H](CO)C(=O)N[C@@H](CCCCN)C(=O)N[C@@H](Cc1ccc(O)cc1)C(=O)N[C@@H](CC(C)C)C(=O)N[C@@H](CC(=O)O)C(=O)N[C@@H](CCC(=O)O)C(=O)N[C@@H](CCCNC(=N)N)C(=O)N[C@@H](C)C(=O)N[C@@H](C)C(=O)N[C@@H](CCC(N)=O)C(=O)N[C@@H](CC(=O)O)C(=O)N[C@@H](Cc1ccccc1)C(=O)N[C@H](C(=O)N[C@@H](CCC(N)=O)C(=O)N[C@@H](Cc1c[nH]c2ccccc12)C(=O)N[C@@H](CC(C)C)C(=O)N[C@@H](CC(C)C)C(=O)N[C@@H](CCC(=O)O)C(=O)NCC(=O)NCC(=O)N1CCC[C@H]1C(=O)N[C@@H](CO)C(=O)N[C@@H](CO)C(=O)NCC(=O)N[C@@H](C)C(=O)N1CCC[C@H]1C(=O)N1CCC[C@H]1C(=O)N1CCC[C@H]1C(=O)N[C@@H](CO)C(N)=O)C(C)C)C(=O)O [compound 44] (H-H[Aib]EGTFTSDK([γGlu-Palmitoyl])SKYLDERAAQDFVQWLLEGGPSSGAPPPS-NH2)
EC50 ([2]; Table 1): 7 pM

H[Aib]QGTFTSDYAKYLDERAAQDFVQWLLDGGPSSGAPPPSK([γGlu-γGlu-Palmitoyl])G-NH2 [compound 17]
EC50 ([2]; Table 1): 8 pM | EC50 ([3]; Table 1): 20 pM

H-H[Aib]QGTFTSEYSKYLDERAAQDFVQWLLDGGPSSGAPPPSK([γGlu-γGlu-Palmitoyl])G-NH2 [compound 16]
EC50 ([2]; Table 1): 2 pM

H-H[Aib]QGTFTSDYSKYLEERAAQDFVQWLLDGGPSSGAPPPSK([γGlu-γGlu-Palmitoyl])G-NH2 [compound 15]
EC50 ([1]; Table 1): 5 pM | EC50 ([2]; Table 1): 3 pM
